These results are taken from patent publication US20170105971A1, “METHODS AND COMPOUNDS FOR THE TREATMENT OF BONE LOSS AND/OR PAIN” (priority 2015, published 2017).

For one series, the system named is Balb/c mice. Briefly: ACPA-induced systemic bone loss in mice, micro-CT of tibia. The series is classed as in vivo, mouse. To be noted: s.c. twice daily 30 mg/kg/day for 6 days from day 6. The procedure: Animal experiments were conducted using adult male Balb/c (Harlan) 15 weeks of age. Mice were housed in standard cages (3-5 per cage) in a climate controlled environment maintaining a 12-hour light/dark cycle with access to food and water ad libitum. All experiments were approved by the local ethics committee for animal experiments in Sweden. […] Starting day 6, the CXCR2 antagonist reparixin (L-lysin salt, HY-15252, MedChem Express) was injected subcutaneously (s.c. in 100 μl saline) twice daily (30 mg/kg/day) for 6 days. At the end of the study, mice were anesthetized using 4% isoflurane, decapitated and left hind leg removed and post-fixed in 4% PFA until further analysis.
Bone structure was analyzed using a SkyScan 1176 micro-CT (Bruker) with a voxel size of 9 μm. The scanning was conducted at 50 kV/480 ρA with a 0.2 mm aluminum filter. The exposure time was 900 ms. The x-ray projections were obtained at 0.4° intervals with a scanning angular rotation of 180°. The projection images were reconstructed into 3-dimensional images using NRecon software (version 1.6.9.8; Bruker) and analyzed using CTVox software (version 2.7.0; Bruker). Trabecular bone in tibia located 644 μm from the proximal growth plate and extending 100.5 μm was analysed regarding BMD and 3D analysis and a volume of cortical bone in tibia mesasuring 617 μm in length, located in the distal tibia was measured for TMD, using CTAnalyzer software (version 1.14.4.1; Bruker). The 3D structures of each joint were blindly assessed by two observers (T.J. and M.M.).

Series [1] addresses T1, PAD4 (Homo sapiens, UniProt Q9UM07). The note with it: cited from earlier work.
Target sequence in this assay (Q9UM07 whole entry, species assumed): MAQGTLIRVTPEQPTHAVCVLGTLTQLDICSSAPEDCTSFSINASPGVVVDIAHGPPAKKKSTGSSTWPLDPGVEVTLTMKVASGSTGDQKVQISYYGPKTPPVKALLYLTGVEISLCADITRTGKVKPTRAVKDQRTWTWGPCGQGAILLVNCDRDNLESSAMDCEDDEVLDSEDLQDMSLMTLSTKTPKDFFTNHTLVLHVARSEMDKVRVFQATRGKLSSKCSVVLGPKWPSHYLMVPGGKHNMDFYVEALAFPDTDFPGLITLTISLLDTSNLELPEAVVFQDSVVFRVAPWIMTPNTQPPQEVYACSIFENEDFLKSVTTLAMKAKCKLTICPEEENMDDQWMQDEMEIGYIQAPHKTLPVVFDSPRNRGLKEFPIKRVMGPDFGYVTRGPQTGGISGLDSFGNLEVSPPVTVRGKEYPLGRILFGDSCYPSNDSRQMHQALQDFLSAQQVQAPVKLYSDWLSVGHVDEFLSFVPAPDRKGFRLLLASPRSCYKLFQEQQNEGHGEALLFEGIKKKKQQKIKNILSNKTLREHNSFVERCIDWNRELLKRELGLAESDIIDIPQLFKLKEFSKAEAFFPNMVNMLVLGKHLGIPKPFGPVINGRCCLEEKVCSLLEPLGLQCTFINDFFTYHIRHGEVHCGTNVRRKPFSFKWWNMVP
Series [2] has as its system ACPA-stimulated OCs. Briefly: ACPA-stimulated osteoclastogenesis with inhibitor, TRAP staining. The series is classed as cell-based, human. The text has this: (§1) The medium was exchanged every three days.
(§2) IL-8 was neutralized in the cell supernatants using an anti-IL-8/CXCL8 neutralizing antibody (clone MAB208, R&D systems, UK). PAD activity was inhibited using a pan-PAD inhibitor Cl-amidine (Cayman chemical, Michigan, USA), either at the initiation of the OC cultures or three days before the end of culturing.

A further series deals with mice. Briefly: ACPA-induced pain (mechanical hypersensitivity) in mice, von Frey filaments. It counts as in vivo, mouse. The note with it: 5 mg/kg s.c. once daily; C03 2 mg i.v.; p<0.01. The procedure:
Starting day 1, the PAD inhibitor 2-2-Chloroacetamide (C0267, Sigma Aldrich) was injected subcutaneously s.c. (in 100 μl saline with 5% DMSO) once daily (5 mg/kg/day) for 10 days.
Withdrawal thresholds of the hind paws were assessed using von Frey filaments as previously described (Bas, D. B. et al., 2012). In brief, the mice were habituated in individual compartments on top of a wire-mesh surface (Ugo Basile) prior to experiment. On test days, mice were given time to acclimatize and then optiHair filaments (Marstock OptiHair) of increasing buckling force (0.5, 1, 2, 4, 8, 16, and 32 mN) were applied to the plantar surface of the paw until the filament bent slightly. A brisk withdrawal of the paw within 2-3 seconds was noted as a positive response. A 50% withdrawal threshold was calculated using the Dixon up-down method (Chaplan, S. R., et al., 1994) and results from both hind paws were averaged and presented as % of baseline values.

In series [3] the target is T1, PAD4. The note with it: cited from earlier work. This is another data set of the same source.
Target sequence in this assay (Q9UM07 whole entry, species assumed): as above
A further series concerns mouse neutrophils. The note with it: cited from earlier work.
For series [4] the following is noted: mouse; cited from earlier work.
In series [5] the target is T1, PAD4. The arrangement: endogenous in cells; host or cells: human neutrophils. The note with it: cited from earlier work.
Target sequence in this assay (Q9UM07 whole entry): as the sequence (Q9UM07 whole entry, species assumed) above
A further series deals with human neutrophils. To be noted: cited from earlier work.
The conditions of series [6]: rat; cited from earlier work.
In another series the test system is OCs. Briefly: LDH cytotoxicity assay in OC culture supernatants. It counts as cell-based, human. The note with it: OC cultures with PAD inhibitor. The procedure:
(§3) The LDH levels in the cell-free culture supernatants were measured using an LDH cytotoxicity assay kit (Roche Diagnostics Scandinavia AB, Bromma, Sweden) according to the manufacturer's instructions.

Series [7] relates to ACPA-stimulated OCs. Briefly: ACPA-stimulated OC calcium phosphate resorption with inhibitor. To be noted: PADi added from the beginning of the OC cultures. It counts as cell-based, human.
Source text: as §1, §2

Series [8] deals with RA-derived synovial fibroblasts. Briefly: LDH cytotoxicity assay in synovial fibroblast supernatants. It counts as cell-based, human. To be noted: PADi at similar doses as in OC cultures. How it is done: (§4) Synovial fibroblasts were isolated from the synovial tissue of RA patients by enzymatic digestion. The cells were growth at 37° C. in 5% CO2 in Dulbecco's modified Eagle medium (DMEM, Sigma-Aldrich, Stockholm, Sweden) with 10% (v/v) heat-inactivated fatal cow serum (FCS, Sigma-Aldrich, Stockholm, Sweden), 100 U/ml penicillin, 100 μg/ml streptomycin and L-glutamine. The cells at passages 4-8 were used throughout this study. Twenty four-well plates were pre-coated with collagen (50 μg/ml), followed by 1 hour of blocking with 3% BSA (Sigma). A sufficient number of SFs were grown to 80-90% confluence and serum starved for 1-2 hours. The scratches were then made using a P-200 pipette tip. The floating cells were removed by washing with PBS. The cells were incubated with or without PAD inhibitors at the indicated concentration for 48 hours. Light microscope images were taken immediately at 0 and 5 hours after scratching. The images were analyzed using NIH ImageJ. The closure areas were normalized to medium control, and these values represent the migration index.
as §3

The test system of series [9] is citrullinated targets in mature OCs. The series can be described thus: immunohistochemistry of citrullinated targets in mature OCs with PAD inhibitor. The series is classed as cell-based, human. The note with it: inhibitor added from the beginning of the cultures; mB02 staining. How it is done: Murinized monoclonal IgG2a ACPAs (D10, B02, C07) and control antibody (E02) were used to investigate the presence of citrullinated proteins during OC maturation. A rabbit polyclonal anti-PAD2 (Cosmo Bio, Tokyo, Japan) and a monoclonal mouse anti-PADI4 (Abcam, Cambridge, UK) antibody were used to investigate the cellular expression of PAD enzymes during OC maturation. Mφ- and iDC-derived OCs were cultured in 8-well glass chamber slides.
Cells at different stages of differentiation were fixed with 2% (vol/vol) formaldehyde (Sigma-Aldrich, Stockholm, Sweden) at 4° C. and stored at −70° C. until use. Following blocking of endogenous peroxidase and avidin-biotin activity, the slides were incubated with primary monoclonal antibodies. HRP conjugated anti-mouse antibody was used as a secondary antibody and developed with 3,3-diaminobenzidene (DAB) for 7 minutes. The slides were counterstained with Mayer's hematoxylin, dehydrated and permanently mounted and viewed using a light microscope (Reichert Polyvar 2 type 302001, Leica).

For series [10], the system named is RA-derived synovial fibroblasts. The series can be described thus: synovial fibroblast in vitro scratch assay (migration index). The series is classed as cell-based, human. The note with it: PADi at similar doses as in OC cultures. The procedure:
as §4

A further series relates to iDC-derived OCs. Briefly: iDC-derived osteoclast culture, TRAP staining (OC numbers). The series is classed as cell-based, human. To be noted: RANKL and M-CSF.
Source text: as §1, §2

Series [11] relates to collagen-induced arthritis. The note with it: Willis et al., cited from earlier work.
For series [12], the system named is antibody-mediated arthritis. To be noted: Willis et al.; cited from earlier work.
The test system of another series is Mφ-derived OCs. Briefly: Mφ-derived osteoclast culture, TRAP staining (OC numbers). It counts as cell-based, human. The note with it: for unstimulated OC differentiation (OC numbers): RANKL and M-CSF, early PAD inhibition (at initiation of OC culture).
[13] abbreviates: early PAD inhibition, doses as low as 0.2 μM.

pIC50: −log10 of the molar value. “Also recorded” adds a separate entry of the source. Like-named read-outs stand apart in the source and are kept apart here.

Turning to `CC(C)Cc1ccc([C@@H](C)C(=O)NS(C)(=O)=O)cc1` [reparixin], in the series on Balb/c mice, the “ACPA-induced change of bone volume fraction” value was “reversed”, the “ACPA-induced change of trabecular bone mineral density (BMD)” value is “reversed” and the “ACPA-induced change of trabecular number” value was “reversed”.
What is called pIC50 is −log10 of the IC50, conventionally taken in molar units. Regarding `Cn1c(-c2nc3cc(C(=O)N4CCCC(N)C4)ccc3n2C)cc2ccccc21` (stereo not drawn) [GSK-121, (3-amino-1-piperidinyl)[1-methyl-2-(1-methyl-1H-indol-2-yl)-1H-benzimidazol-5-yl]-methanone, 2,2,2-trifluoroacetate], the pIC50 on PAD4 [1] (functional assay, read-out: IC50, inhibition of citrullination of PAD4 target proteins) is 5.49.
Turning to adalimumab, in the series on ACPA-stimulated OCs [2] (antibody concentrations as high as 10 μg/ml), the “effect of ACPAs on osteoclastogenesis” value is given as “No such effects”.
With `NC(=O)CCl` [2-Chloroacetamide (2CA), 2-Chloroacetamide], the “pain (mechanical hypersensitivity) induced by ACPA antibody C03” value in the series on mice is given as “prevents”.
Turning to “(3-amino-1-piperidinyl)[1-methyl-2-(1-methyl-1H-indol-2-yl)-1H-benzimidazol-5-yl]-methanone, 2,2,2-trifluoroacetate [GSK199]”, at PAD4 [1], the “inhibition of citrullination of PAD4 target proteins” value was “can inhibit”. Besides, the pIC50 on PAD4 [3] (binds to the low-calcium form of the enzyme) is 6.70. The “selectivity for PAD4 over PAD1-3” value on PAD4 [3] is given as “selective for PAD4 over PAD1-3”. Besides, the “formation of neutrophil extracellular traps” value in the series on mouse neutrophils is reported as “diminish”.
Take `COc1cc(C(=O)N2CC[C@@H](O)[C@@H](N)C2)cc2nc(-c3cc4ccccc4n3CC3CC3)n(C)c12` [GSK484, [(3S,4R)-3-amino-4-hydroxy-1-piperidinyl][2-[1-(cyclopropylmethyl)-1H-indol-2-yl]-7-methoxy-1-methyl-1H-benzimidazol-5-yl]-methanone]: the pharmacokinetic profile result in [4] and in series [6] was “favorable” each time. The “citrullination of PAD4 target proteins in human neutrophils” value on PAD4 [5] is given as “blocks”. The “formation of neutrophil extracellular traps” value in the series on human neutrophils and with mouse neutrophils was “inhibits” in each case.
Take `N=C(CCl)NCCC[C@H](NC(=O)c1ccccc1)C(N)=O` [Cl-amidine, N-α-benzoyl-N5-(2-chloro-1-iminoethyl)-L-Orn amide]: the “cell death, LDH release in the supernatants” value with OCs is given as “without inducing cell death; also recorded: without any cytotoxic effect”. Also, the “ACPA-mediated osteoclastogenesis (OC activation)” value in the series with ACPA-stimulated OCs [2] (PADi added from the beginning of the cultures) is “not able to promote OCs activation; also recorded: affects both unstimulated and ACPA-mediate osteoclastogenesis; also recorded: prevented”. For the same molecule, the ACPA-mediated osteoclastogenesis result with ACPA-stimulated OCs [2] (setting [13]) was “still able to inhibit; also recorded: inhibits”; in the series with ACPA-stimulated OCs [2] (late PAD inhibition (three days before ending the OC cultures), doses as high as 20 μM) it was “affects only ACPA-mediated osteoclastogenesis”. Also, the “ACPA-induced calcium phosphate resorption” value in the series with ACPA-stimulated OCs [7] is given as “prevented”. Also, the “fibroblast survival (LDH assay)” value in series [8] was “no changes; also recorded: does not affect”. Further, in [9], the “staining intensity of citrullinated targets in OCs after PAD inhibitor treatment” value is “markedly diminished”. Also, the “fibroblast migration (migration index)” value in series [10] is reported as “no changes; also recorded: does not affect”. Further, the “OC differentiation from iDC” value in the series on iDC-derived OCs is “dose-dependent inhibition”. Besides, in [11], the “disease activity in collagen-induced arthritis” value is listed as “decreases disease activity”. The “bone damage in collagen-induced arthritis” value in series [11] (in the context of lower synovial inflammation) is reported as “lower bone damage”. The “effect on antibody-mediated arthritis” value in [12] is reported as “no effect”. Moreover, the “unstimulated OC differentiation (OC numbers)” value with Mφ-derived OCs was “dose-dependent inhibition; also recorded: dose-dependently inhibited”; in the series with Mφ-derived OCs (listed as PADi) it was “affects both unstimulated and ACPA-mediate osteoclastogenesis”. For the same molecule, the “unstimulated differentiation of OCs” value in the series with Mφ-derived OCs (setting [13]) is on record as “no longer able to affect”.
